What was measured:
[1] = target: T1, Glutathione reductase, mitochondrial (Homo sapiens, UniProt P00390); assay: Glutathione Reductase Activity Assay; conditions: pH 8
T1 sequence (P00390 whole entry): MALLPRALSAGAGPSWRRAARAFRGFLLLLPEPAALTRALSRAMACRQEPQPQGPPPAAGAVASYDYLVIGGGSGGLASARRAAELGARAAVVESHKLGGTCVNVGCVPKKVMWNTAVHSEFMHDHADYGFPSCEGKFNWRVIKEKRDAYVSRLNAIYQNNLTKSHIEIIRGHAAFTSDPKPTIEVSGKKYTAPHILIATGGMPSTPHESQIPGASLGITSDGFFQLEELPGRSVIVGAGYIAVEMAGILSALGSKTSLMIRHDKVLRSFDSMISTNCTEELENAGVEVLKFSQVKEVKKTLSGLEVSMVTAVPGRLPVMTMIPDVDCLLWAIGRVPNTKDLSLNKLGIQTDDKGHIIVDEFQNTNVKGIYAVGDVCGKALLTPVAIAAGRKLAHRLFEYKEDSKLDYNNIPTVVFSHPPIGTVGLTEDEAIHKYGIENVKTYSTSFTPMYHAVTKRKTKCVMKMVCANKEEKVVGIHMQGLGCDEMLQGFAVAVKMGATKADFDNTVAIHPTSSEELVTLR
Description: Enzymatic activity was measured by Beutler's method with a Shimadzu Spectrophotometer UV-(1208), at 25°C. The assay system contained 100 mM Tris-HCl buffer pH 8.0, including 0.5 mM EDTA, 3.3 mM GSSG and 0.1 mM NADPH. One enzyme unit is defined as the oxidation of 1 μmol NADPH per min under the assay condition at 25°C.

[2] = target: T2, Microsomal glutathione S-transferase 1 (Homo sapiens, UniProt P10620); assay: Glutathione S-transferase Activity Assay; conditions: pH 6.5
T2 sequence (P10620 whole entry): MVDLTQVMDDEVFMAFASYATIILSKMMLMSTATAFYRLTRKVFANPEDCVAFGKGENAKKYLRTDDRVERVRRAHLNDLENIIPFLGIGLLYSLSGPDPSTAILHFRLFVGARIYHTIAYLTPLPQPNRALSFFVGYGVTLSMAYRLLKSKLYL
Description: Enzymatic activity was determined spectrophotometrically by measuring the conjugation of CDNB with GSH. The 1 ml assay mixture contained 0.5 mM CDNB, 1 mMGSH, and 100 mM potassium phosphate buffer, pH 6.5. The rate of increase in absorbance at 340 nm was measured for 5 mm at 37°C against a blank containing thereaction mixture without enzyme.

Glutathione peroxidase 1 = target: T3, Glutathione peroxidase 1 (Homo sapiens, UniProt P07203); assay: Glutathione Peroxidase Activity Assay; conditions: pH 7
T3 sequence (P07203 whole entry): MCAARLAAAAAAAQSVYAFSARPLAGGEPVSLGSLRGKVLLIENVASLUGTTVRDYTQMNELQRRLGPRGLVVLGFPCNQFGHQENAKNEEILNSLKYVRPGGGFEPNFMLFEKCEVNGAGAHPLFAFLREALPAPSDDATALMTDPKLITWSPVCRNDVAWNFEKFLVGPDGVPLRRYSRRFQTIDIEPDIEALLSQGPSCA
Description: Glutathione peroxidase was assayed in a l-ml system containing 0.1 M potassium phosphate buffer, pH 7.0, 0.2 mM NADPH, 1 i.u. glutathione reductase, 4 mM GSH,4 mM EDTA, 4 mM sodium azide. The reaction mixture was incubated at 37°C for 10 min after which 10 μl of 10 mM t-butyl hydroperoxide were added to start the reaction. No t-butyl hydroperoxide was added to the blank cuvette. The rate of reaction was measured at 37°C by following the decrease in the absorbance at 340 nm using a spectrophotometer.

SMILES | IC50 [1] [µM] | Ki [1] [µM] | IC50 [2] [µM] | Ki [2] [µM] | IC50 (Glutathione peroxidase 1) [µM] | Ki (Glutathione peroxidase 1) [µM]
CO/N=C(\C(=O)N[C@@H]1C(=O)N2C(C(=O)O)=C(COC(N)=O)CS[C@H]12)c1ccco1 [640/359] | 18.8 | 10.4 | 56.4 | 32.4 | 44.3 | 32.7
CO/N=C(\C(=O)N[C@@H]1C(=O)N2C(C(=O)O)=C(CSc3nc(=O)c(=O)[nH]n3C)CS[C@H]12)c1csc(N)n1 [(6R,7R)-7-{2-(2-Amino-thiazol-4-yl)-2-[(Z)-methoxyimino]-acetylamino}-3-(2-methyl-5,6-dioxo-1,2,5,6-tetrahydro-[1,2,4]triazin-3-ylsulfanylmethyl)-8-oxo-5-thia-1-aza-bicyclo[4.2.0]oct-2-ene-2-carboxylic acid] | 21.3 | 17.3 | 61.8 | 35.4 | 48.6 | 34.1
CCN1CCN(C(=O)N[C@@H](C(=O)N[C@@H]2C(=O)N3C(C(=O)O)=C(CSc4nnnn4C)CS[C@H]23)c2ccc(O)cc2)C(=O)C1=O [CEFOPERAZONE] | 48.4 | 28.7 | 484 | 267 | 313 | 245
CO/N=C(\C(=O)N[C@@H]1C(=O)N2C(C(=O)O)=CCS[C@H]12)c1csc(N)n1 [Ceftizoxime] | 39.7 | 22.8 | 278 | 165 | 186 | 121

From BindingDB's records for doi:10.3109/14756366.2012.688042 (Ondokuz Mayis University, 2013)
